The results in this text go back to patent publication US11976280B2, “SMAC/Diablo inhibitors useful for treating cancer” (THE NATIONAL INSTITUTE FOR BIOTECHNOLOGY IN THE NEGEV LTD., priority 2017, dated 2024).

One series concerns MDA-MB-231 cells. As to the kind of experiment: SRB cell growth assay, MDA-MB-231. The class given is cell-based, human. As to conditions: 100 nM. The method, then: FIGS. 5A-5G depict that si-hSMAC-A inhibited cell growth in vitro and tumor growth of breast cancer xenografts: (FIG. A) MDA-MB-231 cells were transfected with si-NT (50 nM) or si-hSMAC-A (100 nM) and analyzed for cell growth at the indicated time using the SRB method (n=3) (Control (●), si-NT (◯), si-hSMAC-A (▴); (FIG. 5B) MDA-MB-231 cells were transfected with si-NT or si-hSMAC-A and at the indicated time cells were harvested and analyzed for SMAC/Diablo levels by immunoblotting. (3-actin was used as a loading control; (FIG. 5C) MDA-MB-231 cells (3×10^6 cells/mouse) were inoculated into nude mice. Tumor volumes were monitored (using a digital caliper) and on day 18, the mice were divided into two groups (n=8 each) with each mouse in the group containing a tumor with a volume between 60 and 100 mm^3 and similar average volumes measured per group. […] (FIG. 5D) Represents photomicrograph of dissected tumors from mouse MDA-MB-231 cell xenografts treated with si-NT or si-hSMAC-A; (FIG. 5E) Bar-graph represents dissected tumors weight from MDA-MB-231 cell xenografts; calculated average tumor volumes are presented as means±SEM, ***P<0.001 (FIG. 5F, FIG. 5G) Dissected tumors were subjected to immunohistochemistry. […]
Twenty-four hours post-transfection with si-NT or si-hSMAC, cells (10,000/well) were counted and seeded in 96-well plates. […]

Series [1] deals with A549 cells. Briefly: Ki-67 positive cells, immunofluorescence staining. The class given is cell-based, human. The settings on record: 50 nM.
The subject of series [2] is A549 cells. Briefly: Cell cycle analysis by flow cytometry. Format: cell-based, human. The settings on record: relative to etoposide-treated cells; 50 nM. Here is the method: For cell cycle analysis, cells were harvested, washed with PBS and fixed with ice-cold 70% ethanol overnight at −20° C. The cells were then washed with PBS, incubated with RNase A (100 μg/ml) in PBS for […] at 37° C. Then the cells were incubated with PI (1 μg/ml) before analysis on a flow cytometer (iCyt Eclipse EC800, UK). Single cells were gated and a minimum of 10,000 cells acquired and analyzed by FACS Eclipse analyzer.
A general note: In flow cytometry, cells or beads pass a laser one at a time.

The test system of series [3] is A549-derived xenograft tumors. Briefly: TUNEL and q-PCR of apoptosis-associated genes in A549-derived xenograft tumors. Format: in vivo, mice. Here is the method:
Total RNA was isolated from cells using an RNeasy mini kit (Qiagen) according to the manufacturer's instructions. Complementary DNA was synthesized from 1 μg total RNA using a Verso cDNA synthesis kit (Thermo Scientific). q-PCR was performed using specific primers (KiCqStart Primers; Sigma Aldrich) in triplicates, using Power SYBER green master mix (Applied Biosystems, Foster City, CA). The levels of the target genes were normalized relative to β-actin mRNA levels. Samples were amplified by a 7300 Real Time PCR System (Applied Biosystems) 95° C. for 2 minutes and for 40 cycles using the following PCR parameters: 95° C. for 15 seconds, 60° C. for 1 minute, and 72° C. for 1 minute. The copy numbers for each sample were calculated by the CT-based calibrated standard curve method. The mean fold changes (±SEM) of the three replicates were calculated.
Tumor sections were processed for the TUNEL assay using the DeadEnd Fluorometric TUNEL system (Promega, Madison, WI) according to the manufacturer's instructions. […]
As SMAC/Diablo released from mitochondria during apoptosis binds to and counters the activities of IAPs leading to the release of bound caspases (Verhagen, A. M., et al. 2000. Cell 102, 43-53), the expression levels of XIAP1, cIAP1, and cIAP2, as well as of pro-apoptotic proteins including caspases 3, 8, and 9, Cyto c, and AIF were analyzed.

Another series relates to WI38 and HaCat cells. As to the kind of experiment: SRB cell growth assay, immortalized non-cancerous cell lines. Format: cell-based, human. Here is the method:
The siRNAs were synthesized by Genepharma (Suzhou, China). Cells were seeded (150,000 cells/well) on 6-well culture dishes to 40-60% confluence and transfected with 10-100 nM si-NT or si-hSMAC/Diablo using the JetPRIME transfection reagent (Illkirch, France), according to the manufacturers' instructions.
Twenty-four hours post-transfection with si-NT or si-hSMAC, cells (10,000/well) were counted and seeded in 96-well plates. After additional 48, 72 or 96 hours, the cells were washed with PBS, fixed with 10% trichloroacetic acid, and stained with SRB. SRB was extracted from the cells using 100 mM Tris base and absorbance at 510 nm was determined using an Infinite M1000 plate reader (Tecan, Männedorf, Switzerland).
The effect of the SMAC/Diablo silencing on cell growth was examined using the sulforhodamine B (SRB) assay. […] Three other siRNAs designed to target hSMAC (B to D as described hereinabove) were also found to inhibit SMAC/Diablo expression and cell growth to various degrees (FIG. 2I, 2J).

d = 2'-deoxy (DNA); r = 2'-OH (RNA)

With “si-hSMAC-A: siRNA to human SMAC/Diablo; sense 5′AAGCGGUGUUUCUCAGAAUUGtt3′ (SEQ ID NO:20), antisense 5′AACAAUUCUGAGAAACCCGCtt3′ (SEQ ID NO:21) (sense AAGCGGUGUUUCUCAGAAUUGTT; antisense AACAAUUCUGAGAAACCCGCTT; sense: sugars from the 5' end r21 d2, backbone not given here; antisense: sugars from the 5' end r20 d2, backbone not given here)”, the “cell growth in vitro” value with MDA-MB-231 cells is given as “inhibited”. Further, in the series with A549 cells [1], the “decrease in Ki-67 positive cells” value is “about 85%”. Besides, in the series on A549 cells [2], the “increase in the number of cells in S-phase” value is listed as “about 3 fold”. Also, the “apoptosis, TUNEL staining” value in series [3] (mouse, in vivo) is on record as “lack of significant apoptosis”. In addition, the “mRNA expression levels of XIAP1, cIAP1, cIAP2, caspases 3, 8, 9, Cyto c, AIF” value in series [3] (q-PCR) was “noticeably decreased”. The “cell growth of non-cancerous cell lines” value with WI38 and HaCat cells is reported as “did not affect cell growth”.
